Test results published in patent publication US7135466B2 (Kirin Beer Kabushiki Kaisha, priority 1999, dated 2006).
Like-named read-outs stand apart in the source and are kept apart here.

What was measured:
[1] = target: T1, c-kit (Homo sapiens, UniProt P10721); experiment: Inhibitory activity against c-kit autophosphorylation (MO7e cells, h-SCF); format: cell-based; conditions: for inhibition at 1 µM: Mo7e, at 1000 nM; for IC50: MO7e cells, read-out: c-kit IC50
T1 construct: MO7e (human megakaryocytic leukemia cell line) which had been arrested for 20 hr; endogenous in cells; host or cells: MO7e human megakaryocytic leukemia cell line
T1 sequence (P10721 26-976): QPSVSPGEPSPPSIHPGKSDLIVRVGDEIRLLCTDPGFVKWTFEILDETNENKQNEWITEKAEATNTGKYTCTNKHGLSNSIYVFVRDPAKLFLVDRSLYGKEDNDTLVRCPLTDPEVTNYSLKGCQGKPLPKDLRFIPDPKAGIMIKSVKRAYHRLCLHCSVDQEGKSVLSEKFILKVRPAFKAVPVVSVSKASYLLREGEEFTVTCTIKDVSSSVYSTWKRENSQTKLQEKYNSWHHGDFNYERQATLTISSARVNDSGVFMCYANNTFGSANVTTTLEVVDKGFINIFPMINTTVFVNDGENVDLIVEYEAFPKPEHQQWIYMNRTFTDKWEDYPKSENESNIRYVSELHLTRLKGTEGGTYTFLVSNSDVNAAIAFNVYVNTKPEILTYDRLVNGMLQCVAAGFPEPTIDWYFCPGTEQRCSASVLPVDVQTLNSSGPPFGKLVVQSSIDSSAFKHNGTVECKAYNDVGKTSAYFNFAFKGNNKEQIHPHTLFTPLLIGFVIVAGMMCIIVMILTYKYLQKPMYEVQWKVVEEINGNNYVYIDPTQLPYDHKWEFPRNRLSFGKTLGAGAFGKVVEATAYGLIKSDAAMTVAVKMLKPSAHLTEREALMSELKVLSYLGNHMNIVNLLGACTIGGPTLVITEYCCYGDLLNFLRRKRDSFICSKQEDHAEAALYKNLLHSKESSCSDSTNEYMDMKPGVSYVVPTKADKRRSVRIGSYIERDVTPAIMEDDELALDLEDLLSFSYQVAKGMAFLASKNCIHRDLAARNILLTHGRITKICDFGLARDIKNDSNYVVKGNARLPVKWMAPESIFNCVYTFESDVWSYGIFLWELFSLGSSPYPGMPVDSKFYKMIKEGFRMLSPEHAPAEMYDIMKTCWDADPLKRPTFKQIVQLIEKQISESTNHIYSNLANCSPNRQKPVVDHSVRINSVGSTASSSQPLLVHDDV
How it was run: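 Phospho-c-kit ELISA: plate-bound PY-20 anti-phosphotyrosine captures lysate, anti-c-kit plus peroxidase-labelled secondary antibody detect, read at 450 nm. Lysates come from 20 hr-arrested MO7e cells given compound for 1 hr before a 5 min 50 ng/ml h-SCF stimulus.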

[2] = target: T2, PDGF-Ra (Homo sapiens, UniProt P16234); experiment: Inhibitory activity against PDGF-Ra phosphorylation by PDGF-AA stimulation using G292; format: cell-based; conditions: for IC50: > means inhibition at indicated concentration not more than 50%, < and << not less than 50%, read-out: PDGF (E) IC50; for inhibition at 0.1 µM: G292, at 100 nM, read-out: PDGF (E) inhibition (%) at 100 nM
T2 construct: host or cells: G-292 human osteosarcoma cells
T2 sequence (P16234 24-1089): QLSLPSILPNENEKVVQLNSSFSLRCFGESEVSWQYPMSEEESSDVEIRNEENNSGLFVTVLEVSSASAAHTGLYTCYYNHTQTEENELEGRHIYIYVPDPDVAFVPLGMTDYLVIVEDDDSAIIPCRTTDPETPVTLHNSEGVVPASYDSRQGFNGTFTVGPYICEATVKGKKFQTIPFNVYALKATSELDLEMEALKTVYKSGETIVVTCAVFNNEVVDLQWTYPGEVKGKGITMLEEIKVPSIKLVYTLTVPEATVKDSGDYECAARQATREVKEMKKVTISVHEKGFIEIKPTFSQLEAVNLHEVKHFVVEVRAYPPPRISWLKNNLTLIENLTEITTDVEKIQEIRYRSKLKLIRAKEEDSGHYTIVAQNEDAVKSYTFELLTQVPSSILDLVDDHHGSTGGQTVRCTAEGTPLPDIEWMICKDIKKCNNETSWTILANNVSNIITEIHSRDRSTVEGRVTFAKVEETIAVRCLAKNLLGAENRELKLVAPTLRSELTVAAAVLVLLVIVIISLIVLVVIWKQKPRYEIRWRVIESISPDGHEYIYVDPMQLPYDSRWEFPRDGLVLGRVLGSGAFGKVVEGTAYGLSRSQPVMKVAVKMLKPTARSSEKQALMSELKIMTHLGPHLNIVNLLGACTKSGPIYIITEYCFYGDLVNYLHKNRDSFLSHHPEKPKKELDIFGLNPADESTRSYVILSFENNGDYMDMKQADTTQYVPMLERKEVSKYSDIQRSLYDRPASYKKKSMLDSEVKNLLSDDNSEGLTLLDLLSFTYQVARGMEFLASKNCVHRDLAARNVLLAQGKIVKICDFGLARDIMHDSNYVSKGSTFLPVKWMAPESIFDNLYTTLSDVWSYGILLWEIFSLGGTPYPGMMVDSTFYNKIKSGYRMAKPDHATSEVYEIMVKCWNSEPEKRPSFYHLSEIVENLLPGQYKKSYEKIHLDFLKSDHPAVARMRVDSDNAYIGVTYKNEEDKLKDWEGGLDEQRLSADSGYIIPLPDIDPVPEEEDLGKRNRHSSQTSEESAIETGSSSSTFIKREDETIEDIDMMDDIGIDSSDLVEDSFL
How it was run: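 Read-out: A450 from a sandwich ELISA (PY-20 capture, anti-PDGF-Ra detection, peroxidase colour) of lysates from G-292 cells given compound for 1 hr at 37 °C before a 5 min challenge with PDGF-AA at 50 ng/ml.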

[3] = figure within parentheses in −( ) or >1000( )

| IC50 [2] | IC50 ([1]; h-SCF 50 ng/ml) | IC50 ([2]; Pharmacological Test Example 1) | IC50 ([1]; 50 ng/ml h-SCF) | Molecule | other results |
| --- | --- | --- | --- | --- | --- |
| 11 nM |  |  | 269 nM | COc1cc2nccc(Oc3ccc(NC(=S)NC(=O)COc4ccccc4)cc3Cl)c2cc1OC [Example 738, N-{3-Chloro-4-[(6,7-dimethoxy-4-quinolyl)oxy]phenyl}-N′-(2-phenoxyacetyl)thiourea] |  |
| 14 nM |  |  | 180 nM | COc1cc2ncnc(Oc3ccc(NC(=O)NC4CCN(Cc5ccccc5Cl)C4)c([N+](=O)[O-])c3)c2cc1OC (centres unmarked) [Example 581, N-[1-(2-Chlorobenzyl)tetrahydro-1H-3-pyrrolyl]-N′-{4-[(6,7-dimethoxy-4-quinazolinyl)oxy]-2-nitrophenyl}urea] |  |
| < 10 nM |  |  | 201 nM | COc1cc2nccc(Oc3ccc(NC(=O)NN4CCCCCC4)cc3)c2cc1OC [Example 608, N-{4-[(6,7-Dimethoxy-4-quinolyl)oxy]phenyl}-N′-(1-homopiperidinyl)urea] |  |
| < 10 nM |  |  | 61 nM | COc1cc2ncnc(Oc3ccc(OCCCOc4ccc(F)cc4)cc3)c2cc1OC [Example 808, 4-{4-[3-(4-Fluorophenoxy)propoxy]phenoxy}-6,7-dimethoxyquinazoline] |  |
| 46 nM |  |  | 442 nM | COc1cc2nccc(Oc3ccc(NC(=O)NCCN4CCCCC4)c(C)c3C)c2cc1OC [Example 675, N-{4-[(6,7-Dimethoxy-4-quinolyl)oxy]-2,3-dimethylphenyl}-N′-(2-piperidinoethyl)urea] |  |
| > 100 nM |  |  |  | CCCCCCCCc1ccc(C(=O)NC(=S)Nc2ccc(Oc3ccnc4cc(OC)c(OC)cc34)cc2)cc1 [Example 1128, N-{4-[(6,7-Dimethoxy-4-quinolyl)oxy]phenyl}-N′-(4-octylbenzoyl)thiourea] | inhibition at 1 µM ([1]; figure in parentheses in −( )): 17%; inhibition at 0.1 µM ([2]; figure in parentheses in >100( )): 47% |
| 64 nM |  |  |  | COc1cc2nccc(Oc3cc(C)c(NC(=O)NCCN(C(C)C)C(C)C)cc3C)c2cc1OC [Example 671, N-[2-(Diisopropylamino)ethyl]-N′-{4-[(6,7-dimethoxy-4-quinolyl)oxy]-2,5-dimethylphenyl}urea] | inhibition at 1 µM [1, 3]: 22% |
| < 10 nM |  |  |  | COc1cc2nccc(Oc3ccc(NC(=S)NC(=O)CCCCl)cc3Cl)c2cc1OC [Example 1198, N-(4-Chlorobutanoyl)-N′-{3-chloro-4-[(6,7-dimethoxy-4-quinolyl)oxy]phenyl}thiourea] | IC50 ([1]; h-SCF stimulation): 247 nM |
| 25 nM |  |  |  | CCCc1ccc(C(=O)NC(=S)Nc2ccc(Oc3ccnc4cc(OC)c(OC)cc34)c(F)c2)cc1 [Example 998, N-{4-[(6,7-Dimethoxy-4-quinolyl)oxy]-3-fluorophenyl}-N′-(4-propylbenzoyl)thiourea] | IC50 ([1]; h-SCF stimulation): 591 nM |
| 43 nM |  |  |  | CCN(C(=S)NC(=O)Cc1ccccc1)c1ccc(Oc2ccnc3cc(OC)c(OC)cc23)cc1 [Example 1149, N-{4-[(6,7-Dimethoxy-4-quinolyl)oxy]phenyl}-N-ethyl-N′-(2-phenylacetyl)thiourea] | IC50 ([1]; h-SCF stimulation): 150 nM |
| 39 nM |  |  | 186 nM | COc1cc(Oc2ncnc3cc(OC)c(OC)cc23)ccc1NC(=O)NCCN1CCOCC1 [Example 631, N-{4-[(6,7-Dimethoxy-4-quinazolinyl)oxy]-2-methoxyphenyl}-N′-(2-morpholinoethyl)urea] |  |

Continued, molecule first:

| Molecule | IC50 [2] | IC50 ([1]; h-SCF 50 ng/ml) | IC50 ([2]; Pharmacological Test Example 1) | IC50 ([1]; 50 ng/ml h-SCF) | other results |
| --- | --- | --- | --- | --- | --- |
| CCCC(CCN(CC)CC)OC(=O)Nc1cc(C)c(Oc2ccnc3cc(OC)c(OC)cc23)cc1C (centres unmarked) [Example 442, 1-[2-(Diethylamino)ethyl]butyl N-{4-[(6,7-dimethoxy-4-quinolyl)oxy]-2,5-dimethylphenyl}carbamate] | > 100 nM |  |  |  | inhibition at 1 µM [1, 3]: 28%; inhibition at 0.1 µM ([2]; figure within parentheses in >100( )): 32% |
| CCCCc1ccc(OC(=O)Nc2ccc(Oc3ccnc4cc(OC)c(OC)cc34)c(C)c2C)cc1 [Example 273, 4-Butylphenyl N-{4-[(6,7-dimethoxy-4-quinolyl)oxy]-2,3-dimethylphenyl}carbamate] |  | 107 nM | 23 nM |  |  |
| COc1cc2nccc(Oc3ccc(NC(=O)OC4CCCC4)cc3)c2cc1OC [Example 363, Cyclopentyl N-{4-[(6,7-dimethoxy-4-quinolyl)oxy]phenyl}carbamate] |  | 72 nM | < 10 nM |  |  |
| COc1cc2nccc(Oc3cc(C)c(NC(=O)OCCC4CCCCC4)cc3C)c2cc1OC [Example 354, 2-Cyclohexylethyl N-{4-[(6,7-dimethoxy-4-quinolyl)oxy]-2,5-dimethylphenyl}carbamate] |  | 384 nM | 15 nM |  |  |
| COc1cc2ncnc(Oc3ccc(N(C)C(=O)OCc4ccccc4C)cc3)c2cc1OC [Example 491, 2-Methylbenzyl N-{4-[(6,7-dimethoxy-4-quinazolinyl)oxy]phenyl}-N-methylcarbamate] | 24 nM |  |  | 315 nM |  |
| N-{4-[(6,7-Dimethoxy-4-quinolyl)oxy]-2-chlorophenyl}-N′-[4-(N-benzyl)piperidinyl]urea [Example 605] | 31 nM |  |  | 394 nM |  |
| COc1cc2ncnc(Oc3ccc(NC(=O)OCCCOc4ccccc4F)cc3)c2cc1OC [Example 145, 3-(2-Fluorophenoxy) propyl N-{4-[(6,7-dimethoxy-4-quinazolinyl)oxy]phenyl}carbamate] |  | < 30 nM | < 10 nM |  |  |
| C=CCOC(=O)Nc1ccc(Oc2ncnc3cc(OC)c(OC)cc23)cc1 [Example 375, Allyl N-{4-[(6,7-dimethoxy-4-quinazolinyl)oxy]phenyl}carbamate] |  | 144 nM | 74 nM |  |  |
| COc1cc2nccc(Oc3ccc(NC(=O)OCN4C(=O)c5ccccc5C4=O)c(C)c3C)c2cc1OC [Example 418, (1,3-Dioxo-2,3-dihydro-1H-2-isoindolyl)methyl N-{4-[(6,7-dimethoxy-4-quinolyl)oxy]-2,3-dimethylphenyl}carbamate] | 26 nM |  |  | 401 nM |  |
| COc1cc2ncnc(Oc3ccc(NC(=O)OCCCSc4ccc(Cl)cc4C)cc3)c2cc1OC [Example 80] |  | 137 nM | 12 nM |  |  |
| CCN(C(=O)OC1CCCCC1)c1ccc(Oc2ncnc3cc(OC)c(OC)cc23)cc1 [Example 477, Cyclohexyl N-{4-[(6,7-dimethoxy-4-quinazolinyl)oxy]phenyl}-N-ethylcarbamate] | 59 nM |  |  | 248 nM |  |
| COc1cc2ncnc(Oc3ccc(NC(=O)OC4CCCC4)cc3)c2cc1OC [Example 366, Cyclopentyl N-{4-[(6,7-dimethoxy-4-quinazolinyl)oxy]phenyl}carbamate] |  | 66 nM | 27 nM |  |  |
| CCN(CC)CCCNC(=S)Nc1ccc(Oc2ccnc3cc(OC)c(OC)cc23)c(C)c1C [Example 546, N-{4-[(6,7-Dimethoxy-4-quinolyl)oxy]-2,3-dimethylphenyl}-N′-(3-diethylaminopropyl)thiourea] | 54 nM |  |  |  | inhibition at 1 µM [1, 3]: 44% |
| COc1ccccc1COC(=O)Nc1ccc(Oc2ncnc3cc(OC)c(OC)cc23)cc1 [Example 315, 2-Methoxybenzyl N-{4-[(6,7-dimethoxy-4-quinazolinyl)oxy]phenyl}carbamate] |  | 82 nM | < 10 nM |  |  |
| COc1ccc(COC(=O)Nc2cc(C)c(Oc3ccnc4cc(OC)c(OC)cc34)cc2C)cc1OC [Example 64, 3,4-Dimethoxybenzyl N-{4-[(6,7-dimethoxy-4-quinolyl)oxy]-2,5-dimethylphenyl}carbamate] |  | 429 nM | 90 nM |  |  |
| COc1cc2ncnc(Oc3ccc(NC(=O)OC(C)c4ccccc4Br)cc3)c2cc1OC (centres unmarked) [Example 115, 1-(2-Bromophenyl)ethyl N-{4-[(6,7-dimethoxy-4-quinazolinyl)oxy]phenyl}carbamate] |  | 387 nM | < 10 nM |  |  |
